Assays:
[1] = test system: coloboma (Cm) mutant mice; format: in vivo
From the text: (§1) Heterozygote coloboma mice were originally purchased from The Jackson Laboratory (Bar Harbor, Me.) and were bred and maintained in our colony. In the current study, 20 mutant mice and 25 wild-type littermates, all aged 8 to 10 weeks, were used. Animals were divided into 4 groups: mutant/drug-treatment (n=11), mutant/vehicle-control (n=9), wild-type/drug-treatment (n=13), wild-type/vehicle-control (n=12). Age and gender were balanced among groups. All animals were housed as littermates (2-4 mice per cage) and were maintained on ad libitum food and water with a 12 hr light/dark cycle.
(§2) Open-field testing was performed under normal lighting conditions. Mice were brought into the experimental room and allowed at least 1 hr of acclimatization. Thirty minutes prior to testing, animals received an ip. injection of either d-amphetamine (4 mg/kg), eltoprazine (0.5 mg/kg) or saline. The mice were then placed in the activity monitor arenas (27×27×20 cm, Med Associates). Four animals of matching genotype and treatment were tested at one time. Each testing session lasted 40 minutes, after which animals were returned to their home cages. An automated infrared beam array system measured locomotor activity (total distance traveled) and number of center entries (zone crossings).

[2] = target: dopamine receptors; settings: read-out: Ki, affinity for dopamine receptors; cited from earlier work
[3] = test system: wild-type mice; assay: Open-field locomotor activity, wild-type littermates; format: in vivo
From the text: as §1, §2

[4] = test system: DA and 5-HT release in dorsal striatum; assay: In vivo microdialysis of DA and 5-HT release in dorsal striatum, wild-type mice; settings: 0.1 mg/kg i.p.
From the text: Wild-type and 5-HT1B knock out mice were implanted with microdialysis probes according to the methods of DeGroote et al., incorporated herein by reference, with the following modifications. (DeGroote et al., Eur. J. Pharmacol., 439:93-100, 2002). The dialysis probe was placed in the dorsal striatum, at coordinates AP +0.80, ML −1.7 mm from bregma, DV −4.0 mm from the dura, according to the stereotaxic atlas of the mouse brain (Franklin and Paxinos, 1997), and with the toothbar set at 0 mm. Microdialysis experiments were begun 16-20 hours after surgery, using previously described methods, which are incorporated herein by reference (DeGroote et al., 2002). After the start of the dialysis probe perfusion, mice were left undisturbed for three hours. Mice were tested in their home cage during the light period. Samples were collected every 20 minutes in vials containing 7.5 μl acetic acid and stored at −80° C. until HPLC analysis.
Release of DA and 5-HT was measured after peripheral administration of eltoprazine or intrastriatal administration of the selective 5-HT1B receptor agonist CP 93129 dihydrochloride (1,4-Dihydro-3-(1,2,3,6-tetrahydro-4-pyridinyl)-5H-pyrrolo[3,2-b]pyridin-5-one, obtained from Tocris, UK.) Drugs were dissolved in distilled water and further diluted in Ringer solution to the final concentration on the day of the experiment. 5-HT and DA were analyzed by HPLC with electrochemical detection. Samples (25 μl) were injected onto an Inertsil ODS-3 column (3 μM, 2.1×100 mm, Aurora Borealis, The Netherlands) using a Gilson pump and autosampler (Separations, The Netherlands). Separation was performed at 40° C. with the electrochemical detector (Intro, ANTEC Leyden, The Netherlands) set at a potential of 600 mV against an Ag/AgCl reference electrode. The signal was analyzed using Gynkotek software. The mobile phase consisted of 5 g/l (NH4)2SO4, 150 mg/l heptane sulphonic acid sodium salt, 0.5 g/l EDTA, 5% methanol, 30 μl/l triethylamine, 30 μl/l acetic acid, pH 4.6. Flow rate was 0.3 ml/min. The detection limit for 5-HT was 0.5 fmol/25 μl sample (signal to noise ratio 2).
Values for the first four consecutive microdialysis samples were averaged to calculate the basal levels of extracellular 5-HT and DA, uncorrected for probe recovery. Student's t-tests were used to compare basal 5-HT and DA values between the two genotypes. Effects of drug treatment were analyzed by a repeated multivariate analysis of variance (ANOVA) with time as ‘within’ and treatment (or dose) and genotype as ‘between’ factors.

[5] = test system: 5-HT receptor subtypes; settings: cited from earlier work
[6] = 0.5 mg/kg i.p. vs saline (FIG. 6C, 6D)

## c1cc2c(c(N3CCNCC3)c1)OCCO2 [eltoprazine, 1-(2,3-dihydro-1,4-benzodioxanyl-5-yl) piperazine]
[1]; 0.5 mg/kg i.p.
  reduction of total ambulatory distance from that of saline-treated Cm mutants: more than 50%
[1]; 0.5 mg/kg i.p. (FIG. 5B)
  number of zone crossings: decreased the number of zone crossings in Cm mutants to within the range of saline-treated wild-type mice
[1]; 0.5 mg/kg i.p. (FIG. 6A, 6B)
  exploratory preference (center vs periphery of arena): no effect on exploratory preference
[1]; [6]
  rearing behavior: same pattern of rearing behavior
[1]; 0.5 mg/kg i.p., 40 min session, saline 17725±6636 cm (FIG. 5A)
  total ambulatory distance: 8641±1811
[1]; 0.5 mg/kg i.p., open field
  sedative effect: no sedative effect
[2]
  Ki: > 1000 nM
[3]; 0.5 mg/kg i.p.
  locomotor activity (distance traveled or zones crossed): did not influence the locomotor activity
[3]; 0.5 mg/kg i.p. (FIG. 6A, 6B)
  exploratory preference (center vs periphery of arena): no effect on exploratory preference
[3]; [6]
  rearing behavior: same pattern of rearing behavior
[4]
  time after administration to decrease of DA and 5-HT release: ≤ 20 min
  time striatal release of DA and 5-HT remained below basal levels after administration: at least 100 minutes
[4]; awake mice
  basal release of 5-HT: decreased basal release
  basal release of DA: decreased basal release
[5]
  affinity for the 5-HT1A, 5-HT1B, and 5-HT2C receptors: roughly equipotent affinity
[5]; compared with serotonin
  affinity for the 5-HT1D receptor: relatively low affinity

From patent publication US7557109B2, “Treatment for attention-deficit hyperactivity disorder” (priority 2001, dated 2009)
